Patent publication US8551972B2, “Agonists of A2A adenosine receptors for treating recurrent tumor growth” (Adenosine Therapeutics, LLC, priority 2007, dated 2013)
“Also recorded” adds a separate entry of the source.

Tested on: C26 colorectal carcinoma liver metastases
Experiment: Mouse model of hepatic ischemia/reperfusion (I/R)-accelerated outgrowth of C26 colorectal liver metastases
Format: in vivo, mouse (male Balb/C)
Conditions: for ratio of hepatic replacement area (HRA) values in ischemic (clamped) left liver lobes versus non-ischemic right and median liver lobes: FIG. 4, I/R-subjected mice, day 10, sham about 1, untreated I/R about 2.5-fold; for accelerated (necrosis-associated) tumor growth in the clamped left liver lobes following I/R: left lobar I/R on day 5, livers day 10, ZM241385 1 micro-g/kg bolus + 10 ng/kg/min minipump, 3 days
Text: A mouse model has been enabled in which selective temporary occlusion of blood flow into the left liver lobe results in a profound acceleration of tumor growth in the clamped liver lobes, but not in the unclamped liver lobes. An A2A receptor agonist was then studied to determine its effect on the accelerated tumor growth.
• Male Balb/C mice (10-12 weeks) are housed under standard laboratory conditions with free access to water and chow and a 12-hour dark-light cycle. 2. Before the Experiment: Cell Culture • The murine colon carcinoma cell line C26 is cultured in Dulbecco's modified Eagle's medium supplemented with 5% heat-inactivated fetal calf serum, penicillin (100 units/ml) and streptomycin (100 μg/ml) in a 5% carbon dioxide environment. 3. Day 0: Induction of Liver Metastases • Confluent cultures of the C26 cell line are harvested by brief trypsinization (0.05 trypsin in 0.02% EDTA). • After centrifugation, single cell suspensions are prepared in PBS to a final concentration of 5×10^4 cells/100 μl. • Cell viability is determined by trypan blue staining, and should be ≧98%. • The induction of liver metastases is performed under inhalation anesthesia with a 1.5-2% isoflurane/O2 mixture using a mask. • Buprenorfine (3 μg/mouse) is administered intramuscularly prior to surgery to provide sufficient intra- and postoperative analgesia. • Surgical procedures are performed under aseptic conditions. • Body temperature is maintained at 36.5-37.5° C. by placing the animals on a heated table and covering them by aluminium foil. • Through a left lateral flank incision, 5×10^4 C26 colorectal carcinoma cells are injected into the splenic parenchyma (within an hour after trypsinisation). • After ten minutes, the spleen is removed to prevent intrasplenic tumor growth. • After the procedure a small amount of saline is left in the abdominal cavity and the peritoneum and skin are separately closed with 5.0 vicryl. • Animals are allowed to recover from anesthesia under standard laboratory conditions and are allowed free access to water and chow. 4. Day 0-5: • Micrometastases are allowed to develop throughout the liver for 5 days. 5. Day 5: Marine Model of Hepatic I/R • The induction of hepatic I/R is performed under inhalation anesthesia with a 1.5-2% isoflurane/O2 mixture using a mask. • Buprenorfine (3 μg/mouse) is administered intramuscularly prior to surgery to provide sufficient intra- and postoperative analgesia. • Surgical procedures are performed under aseptic conditions. • Body temperature is maintained at 36.5-37.5° C. by placing the animals on a heated table and covering them by aluminium foil. • ATL-313 solutions are prepared and suspended in osmotic minipumps (Alzet) at a dose of 3 ng/kg/min. Minipumps are placed in normal saline at 37° C. for at least 4 hours prior to the operation, to allow immediate drug delivery. • After laparotomy, mice receive an intraperitoneal bolus injection of 1 ng/kg ATL-313. • A control group received the A2AR antagonist ZM241385 as an intraoperative bolus (1 micro-g/kg) and subsequently continuously using osmotic intraperitoneal minipumps (10 ng/kg/min; 3 days). • Sham operated mice undergo laparotomy with exposure of the liver but without interruption of hepatic flow. • Partial hepatic I/R is induced by occluding the vascular inflow of the left lateral liver lobe for 45 minutes, corresponding to approximately 40% of the liver mass. • Surgical foil is placed over the laparotomy wound to avoid dehydration. • After removal of the clamps a small amount of saline is left in the abdominal cavity • The peritoneum and skin are separately closed with 5.0 vicryl. 6. Day 5-10: • Micrometastases are allowed to grow out to macrometastases (approximately 10-20% of the non-clamped lobes at day 10) for 5 days 7. Day 10: • Livers were harvested, fixed in formalin, and embedded in paraffin. Tissue sections were stained with H&E and the following parameters were assessed by an operator who was blinded to treatment. • 1. […]

[1] = ATL-313 1 ng/kg bolus + 3 ng/kg/min minipump

SMILES | ratio of hepatic replacement area (HRA) values in ischemic (clamped) left liver lobes versus non-ischemic right and median liver lobes | tissue necrosis (liver) (left lobar I/R on day 5 (45 min clamping), livers harvested day 10, H&E, ATL-313 1 ng/kg i.p. bolus + 3 ng/kg/min osmotic minipump) | accelerated (necrosis-associated) tumor growth in the clamped left liver lobes following I/R [1] | accelerated (necrosis-associated) tumor growth in the clamped left liver lobes following I/R (ATL-313 1 ng/kg bolus + 3 ng/kg/min minipump, listed as ATL) | inflammation following I/R (left lobar I/R on day 5, ATL-313 1 ng/kg bolus + 3 ng/kg/min minipump)
COC(=O)N1CCC(CC#Cc2nc(N)c3ncn(C4OC(C(=O)NC5CC5)C(O)C4O)c3n2)CC1 (stereo not shown) [ATL313, 4-{3-[6-Amino-9-(5-cyclopropylcarbamoyl-3,4-dihydroxy-tetrahydro-furan-2-yl)-9H-purin-2-yl]-prop-2-ynyl}-piperidine-1-carboxylic Acid methyl ester] | 1 | prevents; also recorded: almost completely prevented | prevents; also recorded: almost completely prevented | prevents the increase in tumor growth | almost completely prevented
Nc1nc(NCCc2ccc(O)cc2)nc2nc(-c3ccco3)nn12 [ZM241385, reference compound] | increasing the left-to-right/median ratio, although this difference did not reach statistical significance | – | appears to aggravate tumor growth | – | –
